{"source": "patent US11318135B2", "about": "(priority 2020, dated 2022)", "key": {"[1]": {"conditions": "300 mg/kg/d from day 6 to day 13, cited from earlier work"}, "Vero E6 cells": {"tested_on": "Vero E6 cells", "conditions": "Vero E6, 48 h"}, "SARS-CoV-2": {"tested_on": "SARS-CoV-2", "format": "cell-based, SARS-CoV-2 (nCoV-2019BetaCoV/Wuhan/WIV04/2019 strain)"}, "EBOV-Zaire type [2]": {"tested_on": "EBOV-Zaire type", "conditions": "virus titer in supernatant, Vero E6 cell line, read-out: half-inhibitory concentration (IC50); cited from earlier work"}, "Vero C1008 cells": {"tested_on": "Vero C1008 cells", "conditions": "high concentration of 1.95 g/L; cited from earlier work"}, "EBOV-Zaire type [3]": {"tested_on": "EBOV-Zaire type", "conditions": "drug concentration of above 62.5 mg/L; cited from earlier work"}, "[4]": {"conditions": "cited from earlier work"}, "SARS coronavirus": {"tested_on": "SARS coronavirus", "format": "in vivo, A129 mice", "conditions": "for Death rate: once daily from 4 h to 144 h after challenge, 1*10^6 PFU; for Protection of SARS coronavirus-infected mice from death: intraperitoneal once a day from 4 hours after challenge, 50-200 mg/kg"}}, "note": "“Also recorded” adds a separate entry of the source. Where two headings read alike, the source gives them in different places.", "data": [{"compound": "NC(=O)c1nc(F)cnc1O", "note": "[Favipiravir, 6-fluoro-3-hydroxypyrazine-2-carboxamide]", "values": [{"measurement": "protection rate", "setting": "[1]; challenge dose of 100% death of placebo group", "result": 100, "unit": "%"}, {"measurement": "body weight, glutamic-pyruvic transaminase, glutamic-oxalic transaminase, viremia", "setting": "[1]", "result": "improved significantly"}, {"measurement": "Cell viability (% of vehicle control)", "setting": "Vero E6 cells; 0.14 μM", "result": "101.61 ± 0.74 % of vehicle control"}, {"measurement": "Cell viability (% of vehicle control)", "setting": "Vero E6 cells; 0.41 μM", "result": "101.38 ± 3.85 % of vehicle control"}, {"measurement": "Cell viability (% of vehicle control)", "setting": "Vero E6 cells; 1.23 μM", "result": "98.57 ± 1.90 % of vehicle control"}, {"measurement": "Cell viability (% of vehicle control)", "setting": "Vero E6 cells; 3.70 μM", "result": "99.09 ± 4.91 % of vehicle control"}, {"measurement": "Cell viability (% of vehicle control)", "setting": "Vero E6 cells; 11.11 μM", "result": "96.42 ± 4.77 % of vehicle control"}, {"measurement": "Cell viability (% of vehicle control)", "setting": "Vero E6 cells; 33.33 μM", "result": "95.21 ± 4.43 % of vehicle control"}, {"measurement": "Cell viability (% of vehicle control)", "setting": "Vero E6 cells; 100 μM", "result": "96.37 ± 1.26 % of vehicle control"}, {"measurement": "Reduction of viral RNA load in the cells", "setting": "SARS-CoV-2", "result": "the inhibitory activity is dose-dependent"}, {"measurement": "Inhibition of replication of the SARS-CoV-2 virus genome in the infected supernatant", "setting": "SARS-CoV-2; at concentrations of 100 μM, 33 μM, 11.1 μM and 3.7 μM", "result": "could effectively inhibit"}, {"measurement": "Reduction of viral nucleic acid load in cells infected by SARS-CoV-2", "setting": "SARS-CoV-2; at micromolar concentration level", "result": "can reduce the viral nucleic acid load"}, {"measurement": "IC50", "setting": "EBOV-Zaire type [2]", "result": 67, "unit": "µM"}, {"measurement": "Cytotoxicity to Vero C1008 cells", "setting": "Vero C1008 cells", "result": "not cytotoxic"}, {"measurement": "Inhibition of cytopathic effect (CPE) of EBOV-Zaire type", "setting": "EBOV-Zaire type [3]", "result": "completely inhibit"}, {"measurement": "mice protected from death", "setting": "[4]; intragastric 300 mg/kg/d (2 times/d, 150 mg/kg per time) from 1 h after challenge for 14 days", "result": 100, "unit": "%"}, {"measurement": "body weight of the mice in the administration group", "setting": "[4]; intragastric 300 mg/kg/d for 14 days", "result": "significantly improved"}, {"measurement": "Death rate", "setting": "SARS coronavirus; 50 mg/kg intraperitoneal", "result": 100, "unit": "%"}, {"measurement": "Death rate", "setting": "SARS coronavirus; 100 mg/kg intraperitoneal", "result": 50, "unit": "%"}, {"measurement": "Death rate", "setting": "SARS coronavirus; 200 mg/kg intraperitoneal", "result": 0, "unit": "%"}, {"measurement": "Protection of SARS coronavirus-infected mice from death", "setting": "SARS coronavirus", "result": "can effectively protect mice; also recorded: the survival rate is dose-dependent"}, {"measurement": "Protection of SARS coronavirus-infected mice from death", "setting": "SARS coronavirus; listed as compound represented by Formula I", "result": "significant protective effect"}]}]}
